The values that follow come from ChEMBL document CHEMBL1201862, “PubChem BioAssay data set” (2004).

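Growth conditions: 96-well plates. Treatment: test compound, 48 hours, 5 concentrations. Analysis: linear interpolation between bracketing concentrations; unreached endpoints set to highest concentration. Here, GI50 denotes the concentration required for 50% inhibition of growth.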 The source made the active and inactive calls. Cut-off read from the data, not from the text of the source: active = GI50 up to about 1.1 µM and inactive = higher. Some results are limits rather than exact numbers.

Some test systems named below: A498; BT-549; COLO 205; DU-145; EKVX; HCC 2998; HCT-116; HCT-15; HT-29; Hs-578T; MCF7; MDA-MB-231; NCI-H23; NCI/ADR-RES; PC-3; SK-MEL-28; SK-OV-3; SN12C; SNB-19; SR.
Common to all, as to assay: NCI-60 cell line screen, 48 h

`CC(C)(C)c1ccc(NS(=O)(=O)c2ccc(N)cc2)cc1`: the GI50 in the experiment with A498 was 20.1 µM (inactive); in the experiment with BT-549, 23.4 µM (inactive); in the experiment on COLO 205 it was 16.1 µM (inactive); with DU-145, 30.5 µM (inactive); with EKVX, 26.9 µM (inactive); in the experiment with HCC 2998, 18.8 µM (inactive). In addition, the GI50 in the experiment with HCT-116 was 18 µM (inactive); in the experiment with HCT-15, 30.3 µM; in the experiment on HT-29, 19 µM (inactive); with Hs-578T it was 27.4 µM (inactive); with MCF7, 18.4 µM (inactive); with MDA-MB-231, 25.8 µM (inactive). Moreover, the GI50 in the experiment on NCI-H23 is 26 µM (inactive); in the experiment on NCI/ADR-RES, 25.4 µM (inactive); in the experiment on PC-3 it was 28.5 µM (inactive); in the experiment on SK-MEL-28, 27.2 µM (inactive); in the experiment on SK-OV-3 it was 3.29 µM (inactive); with SN12C, 22.3 µM (inactive). Besides, the GI50 with SNB-19 is 35.7 µM (inactive).
`Cc1cc(O)nc(/N=C(\N)Nc2ccc(Cl)cc2)n1`: the GI50 in the experiment on A498, with BT-549, in the experiment with DU-145, with EKVX, with HCC 2998 and in the experiment on HCT-116 was > 100 µM (inactive) each time. For the same compound, the GI50 in the experiment on HCT-15 is > 100 µM; with HT-29, > 100 µM (inactive); in the experiment with Hs-578T, > 100 µM (inactive); in the experiment with MDA-MB-231 it was > 100 µM (inactive); with NCI-H23 it was > 100 µM (inactive); in the experiment on NCI/ADR-RES, > 100 µM (inactive). The GI50 with PC-3, with SK-MEL-28, in the experiment with SN12C, with SNB-19 and with SR was > 100 µM (inactive) in each case.
`N#CC1(C#N)N[C@@H](c2ccsc2)[C@H]2C(=O)N(c3ccccc3)C(=O)[C@H]21`: the GI50 is 26.4 µM (inactive) in the experiment with A498; 97.7 µM (inactive) with BT-549; 93.8 µM (inactive) in the experiment with COLO 205; 66.4 µM (inactive) in the experiment on DU-145; > 100 µM (inactive) in the experiment on EKVX; 79.1 µM (inactive) with HCT-116. The GI50 in the experiment on HT-29 was 85.5 µM (inactive); in the experiment on Hs-578T, 83.6 µM (inactive); in the experiment on MDA-MB-231, 61 µM (inactive); in the experiment with NCI-H23, > 100 µM (inactive); in the experiment with NCI/ADR-RES, > 100 µM (inactive); in the experiment on PC-3 it was 53.7 µM (inactive). Besides, the GI50 was 77.8 µM (inactive) with SK-MEL-28, > 100 µM (inactive) in the experiment on SK-OV-3, 89.1 µM (inactive) in the experiment on SN12C and 21.3 µM (inactive) with SR.
Turning to `O=C(c1ccccc1)C(C(=O)c1ccccc1)c1nc2ccccc2sc1=O`, the GI50 was > 25 µM (inactive) in the experiment on A498; 5.92 µM (inactive) in the experiment with BT-549; 12.5 µM (inactive) in the experiment with COLO 205; > 25 µM (inactive) with DU-145; 16.1 µM (inactive) with EKVX; 23.7 µM (inactive) in the experiment on HCC 2998. In addition, the GI50 in the experiment with HCT-116 is 12 µM (inactive); in the experiment on HCT-15, 7.48 µM; with HT-29, 17 µM (inactive); in the experiment on Hs-578T it was 24.5 µM (inactive); in the experiment on MCF7, 12.2 µM (inactive); with MDA-MB-231, 11.6 µM (inactive). Moreover, the GI50 in the experiment on NCI-H23 is 16.6 µM (inactive); with NCI/ADR-RES it was 10.5 µM (inactive); in the experiment with PC-3, 12.9 µM (inactive); in the experiment on SK-MEL-28 it was > 25 µM (inactive); with SK-OV-3, 6.46 µM (inactive); with SN12C, 6.22 µM (inactive). Further, the GI50 in the experiment on SNB-19 was 18.5 µM (inactive).
`COC(=O)c1ccccc1Nc1ccccc1C(=O)OC`: the GI50 was 52.8 µM (inactive) with A498; > 100 µM (inactive) with BT-549; > 100 µM (inactive) in the experiment on COLO 205; > 100 µM (inactive) in the experiment with DU-145; > 100 µM (inactive) in the experiment with EKVX; > 100 µM (inactive) in the experiment with HCT-116. Besides, the GI50 with HCT-15 was > 100 µM; with HT-29, 91.2 µM (inactive); in the experiment with Hs-578T, 20.8 µM (inactive); in the experiment with MCF7, > 100 µM (inactive); in the experiment with MDA-MB-231, 65.2 µM (inactive); in the experiment on NCI-H23, > 100 µM (inactive). The GI50 in the experiment on NCI/ADR-RES is > 100 µM (inactive); in the experiment on PC-3, 39.5 µM (inactive); in the experiment on SK-MEL-28, > 100 µM (inactive); in the experiment on SK-OV-3, > 100 µM (inactive); with SN12C it was > 100 µM (inactive); in the experiment on SNB-19, > 100 µM (inactive).
Turning to `CN1C2=Nc3n(C)c4ccccc4[n+]3CN2c2ccccc21`, the GI50 in the experiment with BT-549 is > 100 µM (inactive); with COLO 205 it was 12.7 µM (inactive); with DU-145 it was 43.3 µM (inactive); in the experiment with EKVX, 36.1 µM (inactive); in the experiment on HCT-116, 43.2 µM (inactive); in the experiment on HCT-15, > 100 µM. The GI50 was 38 µM (inactive) with HT-29; 27.5 µM (inactive) with Hs-578T; 10.5 µM (inactive) with MCF7; 34.6 µM (inactive) with MDA-MB-231; 26.5 µM (inactive) in the experiment with NCI-H23; > 100 µM (inactive) in the experiment with NCI/ADR-RES. Moreover, the GI50 in the experiment on PC-3 was 47.3 µM (inactive); in the experiment on SK-OV-3, > 100 µM (inactive); in the experiment with SN12C it was 25.8 µM (inactive); with SNB-19 it was 35.3 µM (inactive); in the experiment on SR it was 28.3 µM (inactive).
For the compound `CC(=O)OCCCOCn1c(Cc2ccccc2)c(C)c(=O)[nH]c1=O`, the GI50 in the experiment with A498, in the experiment with BT-549, in the experiment on COLO 205, in the experiment on DU-145, with EKVX and in the experiment with HCC 2998 was > 100 µM (inactive) in each case. The GI50 in the experiment with HCT-116 was > 100 µM (inactive); in the experiment on HCT-15, > 100 µM; in the experiment with HT-29 it was > 100 µM (inactive); in the experiment on Hs-578T it was > 100 µM (inactive); in the experiment with MCF7 it was > 100 µM (inactive); with MDA-MB-231, > 100 µM (inactive). Moreover, the GI50 with NCI-H23, with PC-3, in the experiment with SK-MEL-28, with SK-OV-3, with SN12C and in the experiment on SNB-19 was > 100 µM (inactive) in each case. Also, the GI50 with SR is > 100 µM (inactive).
In the case of `C[C@H](C1CC(C)(O)C(C)(O)C(O)O1)[C@H]1CC[C@H]2[C@@H]3[C@@H]4O[C@@H]4[C@@]4(O)CC=CC(=O)[C@]4(C)[C@H]3CC[C@]12C` (stereo partly drawn), the GI50 in the experiment with A498 was 22.4 µM (inactive); with BT-549, > 50 µM (inactive); in the experiment with COLO 205, > 50 µM (inactive); in the experiment with DU-145, > 50 µM (inactive); in the experiment with EKVX, > 50 µM (inactive); in the experiment on HCC 2998, > 50 µM (inactive). For the same compound, the GI50 with HCT-116 was 36.9 µM (inactive); with HCT-15, > 50 µM; with HT-29, > 50 µM (inactive); with Hs-578T it was 0.039 µM (active); with MCF7 it was > 50 µM (inactive); in the experiment on MDA-MB-231, 44 µM (inactive). Also, the GI50 was > 50 µM (inactive) with NCI-H23; > 50 µM (inactive) in the experiment on NCI/ADR-RES; > 50 µM (inactive) with PC-3; > 50 µM (inactive) with SK-MEL-28; 14.8 µM (inactive) in the experiment on SK-OV-3; > 50 µM (inactive) in the experiment on SN12C. Further, the GI50 in the experiment on SNB-19 is > 50 µM (inactive).
Consider `COc1ccc(NC(C)c2ccncc2)cc1` (stereo not drawn), for which the GI50 in the experiment on A498, in the experiment on BT-549, in the experiment on COLO 205, in the experiment on DU-145, in the experiment on EKVX and in the experiment on HCC 2998 was > 100 µM (inactive) throughout. Further, the GI50 in the experiment on HCT-116 was > 100 µM (inactive); with HCT-15, > 100 µM; in the experiment with HT-29 it was > 100 µM (inactive); in the experiment on Hs-578T, > 100 µM (inactive); in the experiment with MCF7, > 100 µM (inactive); with MDA-MB-231 it was > 100 µM (inactive). The GI50 in the experiment on NCI-H23 was > 100 µM (inactive); with NCI/ADR-RES it was > 100 µM (inactive); in the experiment on PC-3 it was > 100 µM (inactive); in the experiment on SK-MEL-28 it was > 100 µM (inactive); in the experiment on SK-OV-3 it was 18 µM (inactive); with SN12C, > 100 µM (inactive). The GI50 in the experiment with SNB-19 was > 100 µM (inactive).
As to `Nc1cccc2nnccc12`, the GI50 was > 100 µM (inactive) with BT-549; > 100 µM (inactive) in the experiment with COLO 205; > 100 µM (inactive) with DU-145; > 100 µM (inactive) with EKVX; > 100 µM (inactive) with HCT-116; > 100 µM with HCT-15. The GI50 in the experiment with HT-29, in the experiment on Hs-578T, in the experiment with MCF7, in the experiment with MDA-MB-231, in the experiment on NCI-H23 and with NCI/ADR-RES was > 100 µM (inactive) each time. In addition, the GI50 in the experiment on PC-3, in the experiment on SK-OV-3, in the experiment with SN12C and in the experiment on SNB-19 was > 100 µM (inactive) throughout.
As to `c1cc2cc(Cc3ccc4[nH]ccc4c3)ccc2[nH]1`, the GI50 is 16.6 µM (inactive) in the experiment with A498; 19.7 µM (inactive) in the experiment on BT-549; 17.5 µM (inactive) in the experiment with COLO 205; 22.9 µM (inactive) in the experiment on DU-145; 15.3 µM (inactive) in the experiment on EKVX; 15.3 µM (inactive) in the experiment with HCC 2998. For the same compound, the GI50 is 17.6 µM (inactive) in the experiment with HCT-116; 13.9 µM in the experiment with HCT-15; 16.8 µM (inactive) with HT-29; 19.9 µM (inactive) in the experiment on Hs-578T; 14.1 µM (inactive) in the experiment with MCF7; 16.5 µM (inactive) in the experiment with MDA-MB-231. The GI50 in the experiment with NCI-H23 is 18.6 µM (inactive); in the experiment on PC-3, 13.1 µM (inactive); with SK-MEL-28, 26.4 µM (inactive); with SK-OV-3 it was 19.5 µM (inactive); with SN12C, 17.4 µM (inactive); with SNB-19, 21.5 µM (inactive). The GI50 in the experiment on SR was 5.78 µM (inactive).
